# Source: ChEMBL document CHEMBL6074671, “Discovery of Pyridine-2-Carboxamides Derivatives as Potent and Selective HPK1 Inhibitors for the Treatment of Cancer” (J Med Chem, 2024)
# Experiments:
# [1] = target: Tyrosine-protein kinase SYK (Homo sapiens, UniProt P43405); assay: Inhibition of SYK (unknown origin)
# Misshapen-like kinase 1 = Misshapen-like kinase 1 (Homo sapiens, UniProt Q8N4C8); assay: Inhibition of catalytic domain human GST-tagged N-terminal MAP4K6 (1 to 314 residues) expressed in insect Sf21 cells
# Chain of Misshapen-like kinase 1 (Q8N4C8 whole entry, the tested form may be a part): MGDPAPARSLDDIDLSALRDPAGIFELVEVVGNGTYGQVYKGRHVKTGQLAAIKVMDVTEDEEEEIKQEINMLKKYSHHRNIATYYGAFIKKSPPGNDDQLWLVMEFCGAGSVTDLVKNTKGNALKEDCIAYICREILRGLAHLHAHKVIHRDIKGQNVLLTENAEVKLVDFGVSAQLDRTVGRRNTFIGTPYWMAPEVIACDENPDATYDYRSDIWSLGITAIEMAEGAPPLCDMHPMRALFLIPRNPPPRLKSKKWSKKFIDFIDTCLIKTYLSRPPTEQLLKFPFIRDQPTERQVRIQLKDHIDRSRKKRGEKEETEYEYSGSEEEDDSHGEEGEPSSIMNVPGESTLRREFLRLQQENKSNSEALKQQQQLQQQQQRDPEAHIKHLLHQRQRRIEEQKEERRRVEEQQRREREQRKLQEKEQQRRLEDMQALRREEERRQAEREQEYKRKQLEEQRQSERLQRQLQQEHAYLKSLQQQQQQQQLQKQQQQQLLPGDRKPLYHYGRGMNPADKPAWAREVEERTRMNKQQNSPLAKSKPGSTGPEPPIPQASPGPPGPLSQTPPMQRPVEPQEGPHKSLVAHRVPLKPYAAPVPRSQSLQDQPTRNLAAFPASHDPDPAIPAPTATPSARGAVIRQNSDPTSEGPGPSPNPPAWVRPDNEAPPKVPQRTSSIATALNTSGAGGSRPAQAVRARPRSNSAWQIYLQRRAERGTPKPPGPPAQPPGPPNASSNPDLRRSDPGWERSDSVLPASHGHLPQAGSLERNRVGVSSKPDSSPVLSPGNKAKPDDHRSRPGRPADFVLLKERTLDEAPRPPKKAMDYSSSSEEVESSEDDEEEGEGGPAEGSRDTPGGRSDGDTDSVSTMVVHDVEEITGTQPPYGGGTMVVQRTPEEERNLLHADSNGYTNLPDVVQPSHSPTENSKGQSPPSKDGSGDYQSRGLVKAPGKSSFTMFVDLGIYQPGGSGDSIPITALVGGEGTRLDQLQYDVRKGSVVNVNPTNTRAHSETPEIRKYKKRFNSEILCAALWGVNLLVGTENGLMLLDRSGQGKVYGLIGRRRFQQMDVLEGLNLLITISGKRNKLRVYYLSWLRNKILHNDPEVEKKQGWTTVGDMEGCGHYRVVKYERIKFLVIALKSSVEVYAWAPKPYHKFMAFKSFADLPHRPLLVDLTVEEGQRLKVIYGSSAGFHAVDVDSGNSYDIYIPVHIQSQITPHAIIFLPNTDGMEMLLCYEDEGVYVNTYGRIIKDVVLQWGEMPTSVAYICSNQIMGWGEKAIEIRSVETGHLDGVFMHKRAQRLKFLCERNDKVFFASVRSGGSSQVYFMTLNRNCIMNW
# [2] = Plasma protein binding in rat assessed as unbound fraction at 2 uM incubated for 4 hrs by LC-MS/MS analysis; type: ADME, cell-free
# [3] = Efflux ratio in human Caco-2 cells; type: ADME, cell-based
# in vivo [4] = conditions: Beagle, dog, po, 2 mg/kg
# Description: Half life in Beagle dog at 2 mg/kg, po
# Cytochrome P450 3A4 = Cytochrome P450 3A4 (Homo sapiens, UniProt P08684); assay: Inhibition of CYP3A4 in human liver microsomes using midazolam 1-hydroxylation as substrate incubated for 10 mins in presence of NADPH by LC-MS/MS analysis; type: ADME, Microsome
# [5] = Solubility in compound in FassIF at pH 6.5 incubated for 24 hrs by HPLC-UV analysis; type: physicochemical
# in vivo [6] = conditions: cynomolgus monkey, po, 2 mg/kg
# [7] = target: Mitogen-activated protein kinase 14 (Homo sapiens, UniProt Q16539); assay: Inhibition of p38 alpha (unknown origin)
# Chain of Mitogen-activated protein kinase 14 (Q16539 whole entry): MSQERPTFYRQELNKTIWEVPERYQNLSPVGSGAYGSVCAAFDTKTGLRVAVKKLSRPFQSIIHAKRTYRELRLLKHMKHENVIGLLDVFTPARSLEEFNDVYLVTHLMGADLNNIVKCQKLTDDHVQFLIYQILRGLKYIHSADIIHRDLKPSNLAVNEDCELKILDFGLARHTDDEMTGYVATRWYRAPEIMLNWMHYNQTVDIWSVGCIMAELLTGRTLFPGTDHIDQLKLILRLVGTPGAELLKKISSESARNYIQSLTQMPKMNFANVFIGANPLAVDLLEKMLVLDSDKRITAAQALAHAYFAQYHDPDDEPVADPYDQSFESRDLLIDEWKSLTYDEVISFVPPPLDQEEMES
# [8] = Genotoxicity in […] WP2 uvrA incubated for 48 to 72 hrs in presence of S9 fraction by AMES test; type: toxicity, subcellular; conditions: time 48-72 hrs
# [9] = target: Tyrosine-protein kinase Blk (Homo sapiens, UniProt P51451); assay: Inhibition of BLK (unknown origin)
# Chain of Tyrosine-protein kinase Blk (P51451 whole entry): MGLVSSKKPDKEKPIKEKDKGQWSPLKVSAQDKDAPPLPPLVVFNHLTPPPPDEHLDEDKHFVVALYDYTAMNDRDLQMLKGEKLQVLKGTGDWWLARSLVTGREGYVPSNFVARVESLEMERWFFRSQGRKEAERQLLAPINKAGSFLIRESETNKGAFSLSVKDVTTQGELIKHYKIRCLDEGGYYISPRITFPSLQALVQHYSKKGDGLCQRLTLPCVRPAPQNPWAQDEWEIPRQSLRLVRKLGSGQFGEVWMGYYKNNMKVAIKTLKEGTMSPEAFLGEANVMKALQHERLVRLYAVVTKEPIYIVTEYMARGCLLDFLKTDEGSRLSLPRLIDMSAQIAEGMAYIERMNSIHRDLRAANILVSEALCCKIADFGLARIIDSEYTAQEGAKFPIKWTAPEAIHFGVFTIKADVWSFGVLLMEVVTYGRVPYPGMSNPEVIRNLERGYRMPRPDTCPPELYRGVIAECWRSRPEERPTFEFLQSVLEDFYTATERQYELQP
# CT26 [10] = assay: Antitumor activity against mouse CT26 cells implanted in Balb/c mouse model assessed as tumor growth inhibition administered as po dose BID measured after 15 days relative to control; type: functional; conditions: time 15 day
# [11] = Toxicity in Balb/c mouse assessed as effect on body weight loss at 1.5 to 12 mg/kg, po BID measured after 15 days in presence of anti-PD1; type: organism-based; conditions: in vivo, 360 h, dose 1.5-12 mg/kg, time 15 day
# in vivo [12] = conditions: Beagle, dog, po, 2 mg/kg; remark: listed apart in the source
# in vivo [13] = conditions: Beagle, dog, plasma, iv, 1 mg/kg
# Description: Clearance in Beagle dog plasma at 1 mg/kg, iv
# [14] = Plasma protein binding in mouse assessed as unbound fraction at 2 uM incubated for 4 hrs by LC-MS/MS analysis; type: ADME, cell-free
# [15] = target: Serine/threonine-protein kinase TAO2 (Homo sapiens, UniProt Q9UL54); assay: Inhibition of TAOK2 (unknown origin)
# Chain of Serine/threonine-protein kinase TAO2 (Q9UL54 whole entry): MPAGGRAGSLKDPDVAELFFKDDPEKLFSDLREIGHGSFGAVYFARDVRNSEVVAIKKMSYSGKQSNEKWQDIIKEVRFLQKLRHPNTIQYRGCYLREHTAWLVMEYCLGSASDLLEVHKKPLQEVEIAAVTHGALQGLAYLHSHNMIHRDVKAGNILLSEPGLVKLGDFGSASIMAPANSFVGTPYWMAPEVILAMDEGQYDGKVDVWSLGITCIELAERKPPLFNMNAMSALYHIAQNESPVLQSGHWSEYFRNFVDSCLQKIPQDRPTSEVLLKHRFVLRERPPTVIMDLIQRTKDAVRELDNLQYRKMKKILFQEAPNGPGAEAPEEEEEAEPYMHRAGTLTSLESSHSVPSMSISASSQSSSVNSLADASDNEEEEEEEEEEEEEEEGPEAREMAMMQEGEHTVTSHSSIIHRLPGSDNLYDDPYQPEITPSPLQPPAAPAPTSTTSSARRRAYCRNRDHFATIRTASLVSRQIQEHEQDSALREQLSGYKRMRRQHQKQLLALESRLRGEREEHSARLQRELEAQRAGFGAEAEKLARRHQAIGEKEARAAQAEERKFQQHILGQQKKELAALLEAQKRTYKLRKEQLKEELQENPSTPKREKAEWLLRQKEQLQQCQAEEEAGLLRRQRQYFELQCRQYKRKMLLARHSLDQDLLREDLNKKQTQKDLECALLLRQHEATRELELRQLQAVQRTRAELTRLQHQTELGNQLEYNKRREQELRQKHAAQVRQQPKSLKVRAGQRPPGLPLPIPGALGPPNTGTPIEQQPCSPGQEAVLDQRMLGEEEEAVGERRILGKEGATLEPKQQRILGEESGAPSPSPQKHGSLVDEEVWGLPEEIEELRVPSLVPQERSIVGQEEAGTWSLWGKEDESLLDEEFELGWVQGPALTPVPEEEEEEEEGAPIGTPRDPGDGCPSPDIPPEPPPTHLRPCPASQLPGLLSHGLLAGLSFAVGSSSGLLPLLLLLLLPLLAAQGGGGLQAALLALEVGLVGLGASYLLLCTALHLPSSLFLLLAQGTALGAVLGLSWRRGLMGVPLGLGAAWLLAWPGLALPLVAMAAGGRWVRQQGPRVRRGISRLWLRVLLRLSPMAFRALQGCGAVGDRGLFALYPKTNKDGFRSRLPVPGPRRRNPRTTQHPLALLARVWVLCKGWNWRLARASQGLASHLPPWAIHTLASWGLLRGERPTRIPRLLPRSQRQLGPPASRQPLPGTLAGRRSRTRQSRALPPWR
# [16] = Inhibition of ABL (unknown origin); parameters: species or system Homo sapiens
# CT26 [17] = assay: Antitumor activity against mouse CT26 cells implanted in Balb/c mouse model assessed as tumor growth inhibition at high dose administered as po BID measured after 15 days relative to control; type: functional; conditions: time 15 day
# [18] = Toxicity in C57BL/6 mouse implanted with mouse MC38 cells assessed as increase in survival at high dose, po BID measured after 12 days; type: organism-based; conditions: in vivo, 288 h, time 12 day
# MC-38 = assay: Antitumor activity against mouse MC38 cells implanted in C57BL/6 mouse model assessed as tumor growth inhibition at 12 mg/kg, po BID measured after 12 days relative to control; type: functional; conditions: MC-38, 288 h, time 12 day, read-out: TGI
# in vivo [19] = conditions: cynomolgus monkey, po, 2 mg/kg; remark: listed apart in the source
# Description: Half life in Cynomolgus monkey at 2 mg/kg, po
# [20] = target: Proto-oncogene tyrosine-protein kinase Src (Homo sapiens, UniProt P12931); assay: Inhibition of SRC (unknown origin)
# Chain of Proto-oncogene tyrosine-protein kinase Src (P12931 2-536 limits assumed): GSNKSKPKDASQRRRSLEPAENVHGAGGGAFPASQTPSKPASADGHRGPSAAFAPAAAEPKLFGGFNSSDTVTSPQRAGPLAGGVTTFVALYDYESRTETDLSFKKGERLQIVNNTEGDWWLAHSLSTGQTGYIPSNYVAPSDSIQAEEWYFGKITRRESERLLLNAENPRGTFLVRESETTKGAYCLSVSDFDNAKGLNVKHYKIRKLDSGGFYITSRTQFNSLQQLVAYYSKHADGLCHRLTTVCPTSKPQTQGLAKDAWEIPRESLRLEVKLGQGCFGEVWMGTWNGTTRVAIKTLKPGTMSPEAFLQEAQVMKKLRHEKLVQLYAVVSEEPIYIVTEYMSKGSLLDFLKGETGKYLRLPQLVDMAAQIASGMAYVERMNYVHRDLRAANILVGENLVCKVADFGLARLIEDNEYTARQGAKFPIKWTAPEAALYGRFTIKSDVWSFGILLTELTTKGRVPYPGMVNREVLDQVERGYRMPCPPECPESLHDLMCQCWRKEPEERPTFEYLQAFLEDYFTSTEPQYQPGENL
# [21] = target: Tyrosine-protein kinase JAK3 (Homo sapiens, UniProt P52333); assay: Inhibition of JAK3 (unknown origin)
# [22] = target: Mitogen-activated protein kinase kinase kinase kinase 5 (Homo sapiens, UniProt Q9Y4K4); assay: Inhibition of human GST-tagged full length recombinant MAP4K5 expressed in insect cells; parameters: species or system Insect cell
# [23] = Genotoxicity in Salmonella typhimurium TA98 incubated for 48 to 72 hrs in presence of S9 fraction by AMES test; type: toxicity, subcellular; conditions: salmonella enterica subsp. enterica serovar typhimurium, time 48-72 hrs
# [24] = target: Serine/threonine-protein kinase PAK 3 (Homo sapiens, UniProt O75914); assay: Inhibition of PAK3 (unknown origin)
# [25] = target: Tyrosine-protein kinase JAK1 (Homo sapiens, UniProt P23458); assay: Inhibition of JAK1 (unknown origin)
# [26] = target: Tyrosine-protein kinase Fyn (Homo sapiens, UniProt P06241); assay: Inhibition of FYN (unknown origin)
# in vivo [27] = conditions: cynomolgus monkey, plasma, iv, 1 mg/kg
# Description: Clearance in Cynomolgus monkey plasma at 1 mg/kg, iv
# in vivo [28] = conditions: Sprague-Dawley, rat, iv, 1 mg/kg
# Description: Volume of distribution in Sprague-Dawley rat at 1 mg/kg, iv
# [29] = target: Receptor-type tyrosine-protein kinase FLT3 (Homo sapiens, UniProt P36888); assay: Inhibition of FLT3 (unknown origin)
# Chain of Receptor-type tyrosine-protein kinase FLT3 (P36888 whole entry): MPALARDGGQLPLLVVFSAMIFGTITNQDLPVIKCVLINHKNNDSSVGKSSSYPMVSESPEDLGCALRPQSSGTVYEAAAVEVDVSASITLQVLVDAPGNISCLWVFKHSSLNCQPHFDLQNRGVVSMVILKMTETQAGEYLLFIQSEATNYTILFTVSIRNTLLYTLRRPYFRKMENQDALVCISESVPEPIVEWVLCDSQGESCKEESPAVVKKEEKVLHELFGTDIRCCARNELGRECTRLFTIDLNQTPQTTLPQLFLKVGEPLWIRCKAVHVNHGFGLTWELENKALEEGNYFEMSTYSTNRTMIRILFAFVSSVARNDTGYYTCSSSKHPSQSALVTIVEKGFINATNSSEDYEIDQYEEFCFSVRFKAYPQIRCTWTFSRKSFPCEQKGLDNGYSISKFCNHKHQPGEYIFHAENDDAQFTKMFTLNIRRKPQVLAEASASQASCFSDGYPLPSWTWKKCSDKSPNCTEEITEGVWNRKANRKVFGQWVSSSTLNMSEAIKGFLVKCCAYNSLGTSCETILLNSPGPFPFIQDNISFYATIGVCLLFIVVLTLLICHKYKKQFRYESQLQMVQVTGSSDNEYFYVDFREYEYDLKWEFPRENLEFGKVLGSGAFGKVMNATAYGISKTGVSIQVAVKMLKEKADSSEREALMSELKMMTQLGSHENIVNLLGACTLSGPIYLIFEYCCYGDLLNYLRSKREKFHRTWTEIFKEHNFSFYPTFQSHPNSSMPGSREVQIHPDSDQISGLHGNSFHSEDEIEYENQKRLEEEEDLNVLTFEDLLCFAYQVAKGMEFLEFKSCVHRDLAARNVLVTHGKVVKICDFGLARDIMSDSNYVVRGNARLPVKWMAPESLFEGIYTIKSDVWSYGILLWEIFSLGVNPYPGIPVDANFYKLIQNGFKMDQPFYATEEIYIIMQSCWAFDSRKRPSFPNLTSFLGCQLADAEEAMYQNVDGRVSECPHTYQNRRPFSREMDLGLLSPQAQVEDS
compound,measurement,setting,value
COc1cc(Nc2ccc3c(n2)CN(C)C32CCN(C3COC3)CC2)c(C(N)=O)nc1-c1cccc2c1ncn2C,IC50,[1],> 10 µM
same,IC50,Misshapen-like kinase 1,0.116 µM
same,"fraction unbound at 4 h, 2 µM",[2],0.058
same,efflux ratio,[3],8.4
same,half-life,in vivo [4],7.65 h
same,IC50,Cytochrome P450 3A4,> 50 µM
same,solubility at 24 h,[5],18.9 µM
same,bioavailability,in vivo [6],42%
same,IC50,[7],> 10 µM
same,Activity,[8],Non-toxic
same,IC50,[9],1.89 µM
same,TGI,CT26 [10],64.3%
same,Activity,[11],Non-toxic
same,bioavailability,in vivo [12],41.5%
same,clearance,in vivo [13],0.686 L/h/kg
same,"fraction unbound at 4 h, 2 µM",[14],0.079
same,IC50,[15],> 10 µM
same,IC50,[16],4.42 µM
same,TGI,CT26 [17],94.3%
same,Activity,[18],Non-toxic
same,inhibition in vivo at 12 mg/kg,MC-38,59.4%
same,half-life,in vivo [19],8.73 h
same,IC50,[20],2.11 µM
same,IC50,[21],> 10 µM
same,IC50,[22],0.185 µM
same,Activity,[23],Non-toxic
same,IC50,[24],> 10 µM
same,IC50,[25],> 10 µM
same,IC50,[26],> 10 µM
same,clearance,in vivo [27],0.685 L/h/kg
same,Vd,in vivo [28],2.2 L/kg
same,IC50,[29],0.317 µM
